Like-named read-outs stand apart in the source and are kept apart here.
How the values were obtained:
Type in all cases: cell-based
[1] = molecular target: T1, human A2A receptor (Homo sapiens, UniProt P29274); assay: Human T cells, endogenous A2A receptor, cAMP, agonist NECA
Experimental: The endogenous functional activity of the Gs-coupled human A2A receptor was measured in T cells, where this receptor is highly expressed. Determination of receptor activity was done by quantification of cAMP, which is a second messenger for adenosine receptors.
In short, human pan T cells were isolated from human PBMC (MACS Pan T Cell Isolation Kit, Miltenyi Biotec) that have been derived from fresh whole blood. The T cells were seeded in 384-well microtiter plates and treated with test compounds. […] Finally, HTRF reagents (cAMP Femto Kit, CisBio) were added to the wells, and after 1 h cellular cAMP levels were determined using the ENVISION (Perkin Elmer) plate reader.
The obtained raw data were normalized against the inhibitor control and the neutral control (DMSO) and the normalized data were fitted using Genedata Screener software.

[2] = molecular target: T2, human A3 receptor (Homo sapiens, UniProt P0DMS8); assay: Functional A3 receptor activity, recombinant CHO cells, cAMP (HTRF), forskolin, agonist IB-MECA; conditions: recombinant CHO cells, forskolin, agonist IB-MECA; read-out: Functional A3 receptor activity, CHO, cAMP, IC50
T2 construct: expressed in transfected cells; host or cells: CHO
T2 sequence (P0DMS8 1-318): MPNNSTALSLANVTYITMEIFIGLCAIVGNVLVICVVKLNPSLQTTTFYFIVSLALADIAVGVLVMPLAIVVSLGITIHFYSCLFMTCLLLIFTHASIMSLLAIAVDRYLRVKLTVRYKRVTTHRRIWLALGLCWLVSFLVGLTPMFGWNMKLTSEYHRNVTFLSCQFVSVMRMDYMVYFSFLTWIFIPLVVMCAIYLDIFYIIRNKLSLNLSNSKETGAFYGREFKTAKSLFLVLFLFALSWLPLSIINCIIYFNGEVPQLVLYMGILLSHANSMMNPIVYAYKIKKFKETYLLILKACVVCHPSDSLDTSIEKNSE
Procedure, shortened: (§1)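 CHO cells (hA1 or hA3) + forskolin + test cpd + agonist (CPA/A1, IB-MECA/A3), 30 min; HTRF cAMP readout; normalized vs inhibitor and DMSO controls, curve fit.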

[3] = molecular target: T1, human A2A receptor; assay: Functional A2A receptor activity, recombinant HEK293 cells, cAMP (HTRF), agonist NECA; design: expressed in transfected cells; host or cells: HEK293
Procedure, shortened: (§2)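 cAMP readout by HTRF after 30 min exposure of cells to forskolin, compound and agonist; data normalized vs inhibitor ctrl and DMSO (neutral) ctrl, then fitted.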

[4] = molecular target: T3, human A1 receptor (Homo sapiens, UniProt P30542); assay: Functional A1 receptor activity, recombinant CHO cells, cAMP (HTRF), forskolin, agonist CPA; conditions: recombinant CHO cells, forskolin, agonist CPA; read-out: Functional A1 receptor activity, CHO, cAMP, IC50
T3 construct: expressed in transfected cells; host or cells: CHO
T3 sequence (P30542 1-326): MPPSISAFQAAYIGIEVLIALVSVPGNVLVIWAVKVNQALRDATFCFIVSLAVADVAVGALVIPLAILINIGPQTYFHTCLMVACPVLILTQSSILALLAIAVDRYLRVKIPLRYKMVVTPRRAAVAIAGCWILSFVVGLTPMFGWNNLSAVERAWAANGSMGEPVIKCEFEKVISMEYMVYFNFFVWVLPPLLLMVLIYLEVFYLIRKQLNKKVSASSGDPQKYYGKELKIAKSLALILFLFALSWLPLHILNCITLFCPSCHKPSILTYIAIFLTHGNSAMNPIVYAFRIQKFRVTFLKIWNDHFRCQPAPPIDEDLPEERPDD
Procedure, shortened: as §1

[5] = test system: mouse Pan T cells; assay: mTcell assay, cAMP, agonist NECA; conditions: Mus musculus, T-cell
From the text: Adenosine (Ado) in tumor microenvironment can inhibit T cell activity by signaling through A2A receptors and suppress cytokine secretion by T cells. […] Potential A2A antagonists or A2A/A2B dual antagonists can rescue T cells from this inhibition. Herein, we describe the in vitro system we established using Pan T cells from mouse spleens to screen potential A2A antagonists or A2A/A2B dual antagonists for their activity. The method described involves the use of CD3/CD28 pre-coated beads to stimulate Pan T cells purified from mouse splenocytes, combined with the addition of A2A agonist along with potential A2A or A2A/A2B dual antagonists to evaluate potentiation of T cell cytokine production.
Pan T-cells are isolated from black 6 mice by manual dissociation and purified using a Miltenyi Pan T-cell isolation kit. The isolated T-cells are activated in 96 well plates for 48 hours using anti-CD3/CD28 beads in T-cell proliferation media.
After 48 hours, the T-cells are pooled, counted and suspended in serum free media containing 0.1% BSA. The cells are plated at 50,000 cells per well in 10 ul of media and incubated for 2 hours at 37° C. Test compounds are dispensed into the wells at a 10-point dose response, starting at a concentration of 10 uM. […] The plates are incubated for 30 minutes at 37° C. and assayed for cAMP levels using the Cisbio cAMP Dynamic2 reagent kit by adding 10 ul of the kit reagents to each well. The plates are incubated for 1 hour at room temperature and the HTRF signal is read on an Envision plate reader. The raw data is analyzed in Genedata Screener and the resulting data is loaded into the database.

[6] = molecular target: T4, human A2B receptor (Homo sapiens, UniProt P29275); assay: Functional A2B receptor activity, recombinant HEK293 cells, cAMP (HTRF), agonist NECA
T4 construct: expressed in transfected cells; host or cells: HEK293
T4 sequence (P29275 1-332): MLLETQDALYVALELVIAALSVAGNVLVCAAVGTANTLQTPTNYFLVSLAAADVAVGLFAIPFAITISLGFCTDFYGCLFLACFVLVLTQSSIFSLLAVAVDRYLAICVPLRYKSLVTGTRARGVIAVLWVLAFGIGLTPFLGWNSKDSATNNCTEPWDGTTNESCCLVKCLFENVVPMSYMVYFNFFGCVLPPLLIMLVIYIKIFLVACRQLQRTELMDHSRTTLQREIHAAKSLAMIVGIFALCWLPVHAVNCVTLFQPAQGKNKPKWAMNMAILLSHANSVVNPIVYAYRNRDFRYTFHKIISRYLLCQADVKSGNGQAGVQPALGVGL
Procedure, shortened: as §2

[7] = read-out: hTcell data, cAMP, IC50
[8] = read-out: Functional A2A receptor activity, HEK293, cAMP, IC50
[9] = read-out: Functional A2B receptor activity, HEK293, cAMP, IC50

T1 sequence (P29274 whole entry): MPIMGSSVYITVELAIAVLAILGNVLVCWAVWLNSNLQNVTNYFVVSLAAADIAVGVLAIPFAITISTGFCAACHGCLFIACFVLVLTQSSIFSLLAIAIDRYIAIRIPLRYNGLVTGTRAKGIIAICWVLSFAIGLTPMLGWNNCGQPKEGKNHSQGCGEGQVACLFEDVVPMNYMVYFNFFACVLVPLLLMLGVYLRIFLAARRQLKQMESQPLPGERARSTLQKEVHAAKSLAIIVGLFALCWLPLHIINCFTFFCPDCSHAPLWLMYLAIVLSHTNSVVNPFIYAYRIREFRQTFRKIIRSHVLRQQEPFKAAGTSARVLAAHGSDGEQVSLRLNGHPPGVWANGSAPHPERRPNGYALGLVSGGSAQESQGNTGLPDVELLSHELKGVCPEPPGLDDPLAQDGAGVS

SMILES | IC50 [1, 7] [nM] | IC50 [2] [nM] | IC50 [3, 8] [nM] | IC50 [4] [nM] | IC50 [5] [nM] | IC50 [6, 9] [nM] | IC50 [1] [nM] | IC50 [3] [nM] | IC50 [6] [nM]
COc1ncc(-c2ccccc2)c2sc(NC(=O)N3CC[C@H](CN)C3)nc12 [Compound 1, (R)-3-Aminomethyl-pyrrolidine-1-carboxylic acid (4-methoxy-7-phenyl-thiazolo[4,5-c]pyridin-2-yl)-amide] | < 10 | > 1000 | < 10 | > 1000 | < 100 | < 100 | – | – | –
COc1ncc(-c2ccoc2)c2sc(NC(=O)N3CCC4(CCOCC4)C3)nc12 [Compound 52, 8-Oxa-2-aza-spiro[4.5]decane-2-carboxylic acid (7-furan-3-yl-4-methoxy-thiazolo[4,5-c]pyridin-2-yl)-amide] | – | > 1000 | < 10 | > 1000 | < 100 | < 10 | – | – | –
COc1ncc(C2=CCOCC2)c2sc(NC(=O)Nc3ccc(N4CCCC4=O)cc3)nc12 [Compound 89, 3-[7-(3,6-dihydro-2H-pyran-4-yl)-4-methoxy-[1,3]thiazolo[4,5-c]pyridin-2-yl]-1-[4-(2-oxopyrrolidin-1-yl)phenyl]urea] | < 10 | > 1000 | < 10 | > 1000 | – | < 100 | – | – | –
COc1ncc(C2=CCOCC2)c2sc(NC(=O)N3CCC(N4C(=O)CSC4=O)CC3)nc12 [Compound 91, N-[7-(3,6-dihydro-2H-pyran-4-yl)-4-methoxy-[1,3]thiazolo[4,5-c]pyridin-2-yl]-4-(2,4-dioxo-1,3-thiazolidin-3-yl)piperidine-1-carboxamide] | < 10 | > 1000 | < 10 | > 1000 | – | < 10 | – | – | –
COC(=O)N(C)Cc1ccc(C(=O)Nc2nc3c(OC)ncc(-c4ccccc4)c3s2)cc1 [Compound 97, [4-(4-Methoxy-7-phenyl-thiazolo[4,5-c]pyridin-2-ylcarbamoyl)-benzyl]-methyl-carbamic acid methyl ester] | < 100 | > 1000 | < 10 | > 1000 | – | < 100 | – | – | –
COc1ncc(-c2cccc(Oc3cnn(C)c3)c2)c2sc(NC(=O)N3CCC4(CCOCC4)C3)nc12 [Compound 147, 8-Oxa-2-aza-spiro[4.5]decane-2-carboxylic acid {4-methoxy-7-[3-(1-methyl-1H-pyrazol-4-yloxy)-phenyl]-thiazolo[4,5-c]pyridin-2-yl}-amide] | – | < 1000 | < 10 | > 1000 | < 10 | < 10 | – | – | –
COc1ncc([C@H]2COCCO2)c2sc(NC(=O)N3CCC4(CCOCC4)C3)nc12 [Compound 152, 8-Oxa-2-aza-spiro[4.5]decane-2-carboxylic acid ((S)-7-[1,4]dioxan-2-yl-4-methoxy-thiazolo[4,5-c]pyridin-2-yl)-amide] | < 10 | – | – | – | < 100 | – | – | – | –
COc1ncc(C2COCCO2)c2sc(NC(=O)c3ccc(C(=O)O)cc3)nc12 (stereo not shown) [Compound 161, N-(7-[1,4]Dioxan-2-yl-4-methoxy-thiazolo[4,5-c]pyridin-2-yl)-terephthalamic acid] | < 100 | > 1000 | < 10 | > 1000 | – | < 100 | – | – | –
COc1ncc(C2COCCO2)c2sc(NC(=O)c3ccc(-c4nnn[nH]4)cc3)nc12 (stereo not shown) [Compound 164, N-(7-[1,4]Dioxan-2-yl-4-methoxy-thiazolo[4,5-c]pyridin-2-yl)-4-(1H-tetrazol-5-yl)-benzamide] | < 100 | > 1000 | < 10 | > 1000 | – | < 10 | – | – | –
COc1ncc([C@H]2COCCO2)c2sc(NC(=O)c3ccc(C(=O)O)cc3)nc12 [Compound 170, N-((S)-7-[1,4]Dioxan-2-yl-4-methoxy-thiazolo[4,5-c]pyridin-2-yl)-terephthalamic acid] | < 10 | > 1000 | < 10 | > 1000 | – | < 100 | – | – | –

The remaining lines, values ahead:

IC50 [1, 7] [nM] | IC50 [2] [nM] | IC50 [3, 8] [nM] | IC50 [4] [nM] | IC50 [5] [nM] | IC50 [6, 9] [nM] | IC50 [1] [nM] | IC50 [3] [nM] | IC50 [6] [nM] | SMILES
< 10 | > 1000 | < 10 | < 1000 | – | < 10 | – | – | – | [2H]C([2H])([2H])Oc1ncc(C2=CCOCC2)c2sc(NC(=O)N3CC[C@]4(CCCOC4)C3)nc12 [Compound 173, (5R)-N-[7-(3,6-dihydro-2H-pyran-4-yl)-4-(2H3)methoxy-[1,3]thiazolo[4,5-c]pyridin-2-yl]-7-oxa-2-azaspiro[4.5]decane-2-carboxamide]
– | > 1000 | – | > 1000 | – | – | < 10 | < 10 | < 100 | [2H]C([2H])([2H])Oc1ncc(C2=CCOCC2)c2sc(NC(=O)N3CC[C@@]4(CCCOC4)C3)nc12 [Compound 174, (5S)-N-[7-(3,6-dihydro-2H-pyran-4-yl)-4-(2H3)methoxy-[1,3]thiazolo[4,5-c]pyridin-2-yl]-7-oxa-2-azaspiro[4.5]decane-2-carboxamide]
– | – | – | – | > 1000 | – | – | – | – | COc1cnc(N2CCOCC2)c2sc(NC(=O)N3CCC4(CCN(C)C4=O)CC3)nc12 [drawing 205]
– | – | – | – | > 1000 | – | – | – | – | COc1ccc(-c2ccccc2)c2sc(NC(=O)NCCN3CCCCC3)nc12 [drawing 206]
– | – | – | – | < 1000 | – | – | – | – | COc1cnc(N2CCOCC2)c2sc(NC(=O)N3CCC(CO)CC3)nc12 [drawing 207]
– | – | – | – | > 1000 | – | – | – | – | COc1cnc(N2CCOCC2)c2sc(NC(=O)N3CCC4(CCCO4)CC3)nc12 [drawing 208]
– | – | – | – | < 1000 | – | – | – | – | COc1ccc(N2CCOCC2)c2sc(NC(=O)N3CCC4(CCCO4)CC3)nc12 [drawing 209]
– | – | – | – | < 1000 | – | – | – | – | COc1cnc(C2CCOCC2)c2sc(NC(=O)N3CCC(O)CC3)nc12 [drawing 210]
– | – | – | – | < 1000 | – | – | – | – | COc1ccc(N2CCOCC2)c2sc(NC(=O)N3CCCCC3)nc12 [drawing 211]
– | – | – | – | < 1000 | – | – | – | – | COc1cnc(N2CCOCC2)c2sc(NC(=O)N3CCCCC3)nc12 [drawing 212]
– | – | – | – | > 1000 | – | – | – | – | COc1cnc(N2CCOCC2)c2sc(NC(=O)N3CCOCC3)nc12 [drawing 213]

Source: patent publication US12344623B2, “Thiazolopyridine derivatives as adenosine receptor antagonists” (Merck Patent GmbH, priority 2019, dated 2025)
